Results: patent US20100016379A1, “Terephthalamate Compounds and Compositions, and Their Use as HIV Integrase Inhibitors” (IRM LLC, priority 2006, published 2010)
Where two headings read alike, the source gives them in different places.

Legend:
[1] = system: NNRTI resistant mutant K103N; test: Inhibition of NNRTI resistant mutants, K103N; format: cell-based, HIV; conditions: Human immunodeficiency virus 1, read-out: Inhibition of NNRTI resistant mutants (EC50) K103N
Protocol: (§1) Select compounds are assayed against key NNRTI resistant mutants.

[2] = system: NNRTI resistant mutant L100I; test: Inhibition of NNRTI resistant mutants, L100I; format: cell-based, HIV; conditions: Human immunodeficiency virus 1, read-out: Inhibition of NNRTI resistant mutants (EC50) L100I
Protocol: as §1

[3] = system: NNRTI resistant mutant Y188L; test: Inhibition of NNRTI resistant mutants, Y188L; format: cell-based, HIV; conditions: Human immunodeficiency virus 1, read-out: Inhibition of NNRTI resistant mutants (EC50) Y188L
Protocol: as §1

[4] = cytotoxicity assay (Screen 3); format: cell-based; conditions: human, HE 293T cells
From the text: Screen 3: A cytotoxicity assay, to determine inhibitory activity against HE 293T cells.

HIV = test: cell-based HIV luciferase reporter infection assay (Screen 1); conditions: for EC50: Human immunodeficiency virus 1, read-out: HIV Activity EC50
Protocol: HIV therapeutic agents inhibit propagation of HIV in cells, and as such cell-based assays of HIV antiviral activity have been developed. For example, Pauwels et al, Nature (1990) 343: 470-4 describe incubating HIV infected cells with test compounds and subsequently determining cell viability via colorimetric methods, to give an EC50 for the inhibition of HIV-1 replication.
Screen 1: A high throughput cell-based HIV luciferase reporter infection assay (see He et al, Bioorg. Med. Chem. Lett. (2006) 16) that identifies inhibitors of early HIV infection events. The results are shown in Table 2 below, expressed as EC50 (μM), the molar concentration that produces 50% of the maximal possible response.

WT = test: Inhibition of NNRTI resistant mutants, WT; format: cell-based, HIV; conditions: Human immunodeficiency virus 1, read-out: Inhibition of NNRTI resistant mutants (EC50) WT
Protocol: as §1

[5] = system: NNRTI resistant mutant Y181C; test: Inhibition of NNRTI resistant mutants, Y181C; format: cell-based, HIV; conditions: Human immunodeficiency virus 1, read-out: Inhibition of NNRTI resistant mutants (EC50) Y181C
Protocol: as §1

HIV-1 integrase = target: T1, HIV-1 integrase (Human immunodeficiency virus type 1 group M subtype B, UniProt P04585); test: HIV-1 integrase strand transfer assay (Screen 2); format: biochemical
T1 construct: An HIV-1 integrase strand transfer assay
From the text: Screen 2: An HIV-1 integrase strand transfer assay, (see Wang et al, J. Biomol. Screen. (2005) 10: 456), that identifies anti-HIV activity due to inhibition of HIV integrase.

[6] = strand transfer assay, read-out: Integrase Activity IC50

SMILES | EC50 [1] [µM] | EC50 [2] [µM] | EC50 [3] [µM] | CC50 [4] [µM] | EC50 (HIV) [µM] | EC50 (WT) [µM] | EC50 [5] [µM] | IC50 (HIV-1 integrase; [6]) [µM] | activity in the cellular assay (HIV; result in words) | IC50 (HIV-1 integrase) [µM] | activity in the enzymatic assay (HIV-1 integrase; result in words)
COC(=O)c1ccc(C(=O)NCc2cccc(OC)c2)c(O)c1O [Compound 8, methyl 4-(3-methoxybenzylcarbamoyl)-2,3-dihydroxybenzoate] | 0.05 to 0.5 | 0.05 to 0.5 | 0.05 to 0.5 | > 2 | 0.05 to 0.5 | 0.05 to 0.5 | 0.05 to 0.5 | < 0.05 |  |  | 
COC(=O)c1ccc2c(=O)n(Cc3ccccc3)c(=O)oc2c1O [Compound 21, 3-benzyl-8-hydroxy-2,4-dioxo-3,4-dihydro-2H-benzo[e][1,3]oxazine-7-carboxylic acid methyl ester] | 0.05 to 0.5 | 0.05 to 0.5 | 0.05 to 0.5 | > 2 | 0.05 to 0.5 | 0.05 to 0.5 | 0.05 to 0.5 |  | maintains activity | 0.05 to 0.5 | maintains activity
COC(=O)c1ccc(C(=O)NCc2cccc([N+](=O)[O-])c2)c(O)c1O [Compound 11, methyl 4-(3-nitrobenzylcarbamoyl)-2,3-dihydroxybenzoate] | < 0.05 | < 0.05 | < 0.05 | 0.5 to 2 | < 0.05 | < 0.05 | 0.05 to 0.5 | < 0.05 |  |  | 
COC(=O)c1ccc(C(=O)NCc2ccc(C(F)(F)F)cc2)c(O)c1O [Compound 15, methyl 4-(4-(trifluoromethyl)benzylcarbamoyl)-2,3-dihydroxybenzoate] |  |  |  | 0.5 to 2 | 0.5 to 2 |  |  | 0.5 to 2 |  |  | 
Cc1ccnc2c1NC(=O)c1cccnc1N2C1CC1 [NVP, Nevirapine, reference compound] | > 2 | 0.05 to 0.5 | > 2 | > 2 | 0.05 to 0.5 | 0.05 to 0.5 | > 2 |  |  |  | 
COC(=O)c1ccc(C(=O)NCc2ccc(OC)cc2)c(O)c1O [Compound 9, methyl 4-(4-methoxybenzylcarbamoyl)-2,3-dihydroxybenzoate] |  |  |  | > 2 | 0.5 to 2 |  |  | < 0.05 |  |  | 
COC(=O)c1ccc(C(=O)NCc2ccncc2)c(O)c1O [Compound 18, methyl 4-((pyridin-4-yl)methylcarbamoyl)-2,3-dihydroxybenzoate] |  |  |  | > 2 | 0.05 to 0.5 |  |  | 0.05 to 0.5 |  |  | 
O=C(NCc1ccccc1)c1cccc(O)n1 [Compound 5, N-benzyl-6-hydroxypyridine-2-carboxamide] |  |  |  | > 2 | > 2 |  |  |  |  |  | 
O=C(NCc1ccccc1)c1cccc(O)c1 [Compound 3, N-benzyl-3-hydroxybenzamide] |  |  |  | > 2 | > 2 |  |  |  |  |  | 
COC(=O)c1ccc(C(=O)NCc2ccccn2)c(O)c1O [Compound 16, methyl 4-((pyridin-2-yl)methylcarbamoyl)-2,3-dihydroxybenzoate] | 0.05 to 0.5 | 0.05 to 0.5 | 0.05 to 0.5 | > 2 | 0.05 to 0.5 | 0.05 to 0.5 | 0.05 to 0.5 | 0.05 to 0.5 |  |  | 
COC(=O)c1ccc(C(=O)NCc2ccccc2[N+](=O)[O-])c(O)c1O [Compound 10, methyl 4-(2-nitrobenzylcarbamoyl)-2,3-dihydroxybenzoate] | < 0.05 | < 0.05 | 0.05 to 0.5 | 0.5 to 2 | 0.05 to 0.5 | 0.05 to 0.5 | 0.05 to 0.5 | < 0.05 |  |  | 
COC(=O)c1ccc(C(=O)Nc2ccccc2)c(O)c1O [Compound 20, methyl 4-(phenylcarbamoyl)-2,3-dihydroxybenzoate] | < 0.05 | < 0.05 | < 0.05 | 0.5 to 2 | < 0.05 | < 0.05 | < 0.05 | < 0.05 |  |  | 
COC(=O)c1ccc(C(=O)NCc2ccccc2OC)c(O)c1O [Compound 7, methyl 4-(2-methoxybenzylcarbamoyl)-2,3-dihydroxybenzoate] | < 0.05 | < 0.05 | 0.05 to 0.5 | 0.5 to 2 | < 0.05 | < 0.05 | 0.05 to 0.5 | < 0.05 |  |  | 
COC(=O)c1ccc(C(=O)NCc2cccc(C(F)(F)F)c2)c(O)c1O [Compound 14, methyl 4-(3-(trifluoromethyl)benzylcarbamoyl)-2,3-dihydroxybenzoate] |  |  |  | 0.5 to 2 | 0.5 to 2 |  |  | 0.05 to 0.5 |  |  | 
O=C(NCc1ccccc1)c1cccc(O)c1O [Compound 2, N-benzyl-2,3-dihydroxybenzamide] |  |  |  | > 2 | > 2 |  |  |  |  |  | 
COC(=O)c1ccc(C(=O)NCc2ccccc2)c(O)c1O [Compound 1, methyl 4-(benzylcarbamoyl)-2,3-dihydroxybenzoate] |  |  |  | > 2 | 0.05 to 0.5 |  |  |  |  | 0.05 to 0.5 | 
COC(=O)c1ccc(C(=O)NCc2ccccc2C(F)(F)F)c(O)c1O [Compound 13, methyl 4-(2-(trifluoromethyl)benzylcarbamoyl)-2,3-dihydroxybenzoate] |  |  |  | 0.5 to 2 | 0.05 to 0.5 |  |  | 0.05 to 0.5 |  |  | 
COC(=O)c1ccc(C(=O)NCc2cccnc2)c(O)c1O [Compound 17, methyl 4-((pyridin-3-yl)methylcarbamoyl)-2,3-dihydroxybenzoate] |  |  |  | > 2 | 0.05 to 0.5 |  |  | 0.05 to 0.5 |  |  | 
COC(=O)c1ccc(C(=O)NCc2ccc([N+](=O)[O-])cc2)c(O)c1O [Compound 12, methyl 4-(4-nitrobenzylcarbamoyl)-2,3-dihydroxybenzoate] |  |  |  | 0.5 to 2 | 0.05 to 0.5 |  |  | 0.05 to 0.5 |  |  | 
COC(=O)c1ccc(C(=O)N(C)Cc2ccccc2)c(O)c1O [Compound 19, methyl 4-(N-benzyl-N-methylcarbamoyl)-2,3-dihydroxybenzoate] |  |  |  | > 2 | > 2 |  |  | > 2 |  |  | 
CC(C)Oc1ccc(Cc2ccccc2)cc1C(=O)CC(=O)C(=O)O [DKA, reference compound] | < 0.05 | 0.05 to 0.5 | 0.05 to 0.5 | > 2 | 0.05 to 0.5 | 0.05 to 0.5 | 0.05 to 0.5 | 0.05 to 0.5 |  |  | 
O=C(NCc1ccccc1)c1ccccc1O [Compound 4, N-benzyl-2-hydroxybenzamide] |  |  |  | > 2 | > 2 |  |  |  |  |  | 
O=C(NCc1ccccc1)c1cccnc1O [Compound 6, N-benzyl-2-hydroxypyridine-3-carboxamide] |  |  |  | > 2 | > 2 |  |  |  |  |  | 
